Laboratory results as given in paper PMC10584170, “Machine learning-based phenotypic imaging to characterise the targetable biology of Plasmodium falciparum male gametocytes for the development of transmission-blocking antimalarials” (PLOS Pathogens, 2023).

Legend:
[1] = system: P. falciparum female gametocytes; assay: P. falciparum Dual Gamete Formation Assay (PfDGFA), female readout (Pfs25-positive female gametes); assay type: cell-based, Plasmodium falciparum NF54; conditions: for Average inhibition female (%): average of replicates; for % inhibition female (individual replicates) R1: replicate R1; for % inhibition female (individual replicates) R3: replicate R3; for % inhibition female (individual replicates) R4: replicate R4
Method: (§1) P. falciparum NF54 (originally isolated from an imported malaria case in the Netherlands in the 1980s; BEI Resources, cat. No. MRA-1000) strain asexual parasites were maintained between 0.3–5% parasitaemia by regular passage in complete culture medium (RPMI supplemented with 25 mM HEPES, 50 μg ml^−1 hypoxanthine, 4.8 g l^−1 NaHCO3, 2mM L-glutamine, 5% pooled type AB serum, 0.5% Albumax II (Gibco)) at 4% haematocrit in washed whole blood (National Blood and Transfusion Service or Centro de Transfusiones de la Comunidad de Madrid CTCM) under a 1% O2/3% CO2/96% N2 environment. Gametocytes were induced by seeding culture flasks at 2% parasitaemia/4% haematocrit and subjecting them to daily medium changes for 14 days whilst maintaining a temperature of 37°C at all times. On Day 14, the maturity of gametocytes was assessed by quantifying male gametogenesis (exflagellation). A 20 μl sample of gametocyte culture was mixed with equal volume of ookinete medium (complete culture medium supplemented with 0.1 μM xanthurenic acid) at room temperature and transferred to a haemocytometer. After 20 min at room temperature, exflagellation was accurately quantified as described in Delves et al. 2016 [17].
(§2) The Pf DGFA was performed as described in Delves et al. 2016 [17]. […] Plates were then incubated for 24 h at 37°C in a humidified box under a 1% O2/3% CO2/96% N2 gas mix. Gametogenesis was triggered by addition of 10 μl per well of ookinete medium + 0.27 μg ml^-1 Cy3-labelled anti-Pfs25 antibody. Plates were incubated on a metal block at 4°C for 4 min to ensure even cooling, then 28°C for a further 4 min. Exflagellation was recorded by capturing 10 frames over 1 s under brightfield illumination using a x4 objective with a 1.5x zoom (effectively x6) attached to an automated Nikon Ti fluorescence microscope. After recording exflagellation, plates were incubated for a further 24 h in the dark at 28°C to ensure maximal expression of Pfs25 by female gametes. The plates were then returned to the microscope and female gametes imaged at x6 using fluorescence microscopy.
(§3) Exflagellation centres and female gametes were quantified using custom image analysis pipelines developed within ICY Bioimage Analysis (https://icy.bioimageanalysis.org/).

[2] = system: P. falciparum male gametocytes; assay: P. falciparum Dual Gamete Formation Assay (PfDGFA), male readout (exflagellation); assay type: cell-based, Plasmodium falciparum NF54; conditions: for Average inhibition male (%): average of replicates; for % inhibition male (individual replicates) R1: replicate R1; for % inhibition male (individual replicates) R3: replicate R3; for % inhibition male (individual replicates) R4: replicate R4; for Activity: hit = >50% inhibition in male or female readout in at least 3 replicates, 0 = no class assigned
Method: as §1, §2, §3

[3] = 2µM, 24h preincubation with gametocytes
[4] = PfDGFA at 2µM, 24h preincubation with gametocytes prior to induction of gametogenesis
[5] = PfDGFA at 2µM, 24h preincubation
[6] = 2µM, 24h preincubation with gametocytes prior to induction of gametogenesis
[7] = 2µM, 24h preincubation, hits selected on >50% inhibition in the female readout across replicates
[8] = 2µM, 24h preincubation, hits selected on >50% inhibition in the male readout across replicates
[9] = 2µM, 24h preincubation, number of replicates with >50% inhibition in the female readout
[10] = 2µM, 24h preincubation, number of replicates with >50% inhibition in the male readout
[11] = PfDGFA at 2µM, 24h preincubation with gametocytes

| SMILES | % inhibition female (individual replicates) R1 [1, 4] | % inhibition female (individual replicates) R3 [1, 4] | % inhibition female (individual replicates) R4 [1, 4] | Average inhibition female (%) [1, 5] | % inhibition male (individual replicates) R1 [2, 4] | % inhibition male (individual replicates) R4 [2, 4] | Average inhibition male (%) [2, 5] | Average inhibition female (%) [1, 6] | % inhibition female (individual replicates) R1 [1, 6] | % inhibition female (individual replicates) R3 [1, 6] | % inhibition female (individual replicates) R4 [1, 6] | Average inhibition male (%) [2, 6] | % inhibition male (individual replicates) R1 [2, 6] | % inhibition male (individual replicates) R4 [2, 6] | % inhibition male (individual replicates) R3 [2, 6] | other results |
| --- | --- | --- | --- | --- | --- | --- | --- | --- | --- | --- | --- | --- | --- | --- | --- | --- |
| COc1ccc2nc3cc(Cl)ccc3c(N)c2c1.Cl [TCMDC-125835] |  |  |  |  |  |  |  |  |  |  |  |  |  |  |  | Average inhibition female (%) [1, 3]: 50.6%; % inhibition female (individual replicates) R1 [1, 3]: 39.5%; % inhibition female (individual replicates) R3 [1, 3]: 15.3%; % inhibition female (individual replicates) R4 [1, 3]: 62.7%; Average inhibition male (%) [2, 3]: 96.0%; % inhibition male (individual replicates) R1 [2, 3]: 94.1%; % inhibition male (individual replicates) R3 [2, 3]: 90.9%; % inhibition male (individual replicates) R4 [2, 3]: 101.6% |
| Cc1cc(N[C@@H](CC(C)C)C(=O)NCc2cccs2)nc(NCCc2cccs2)n1.O=C(O)C(F)(F)F [TCMDC-134815] | 9.6% | -33.2% | 28.8% | 0.8% | 11.4% | 26.9% | 17.0% |  |  |  |  |  |  |  |  | % inhibition male (individual replicates) R3 [2, 4]: 4.6% |
| CC(C)CN1CCC(COc2ccc3ncn(-c4cc(O[C@H](C)c5ccccc5C(F)(F)F)c(C(N)=O)s4)c3c2)CC1 [TCMDC-135856] | -5.1% | 3.7% | -5.5% | -0.7% | 69.3% | -19.8% | 39.0% |  |  |  |  |  |  |  |  |  |
| CC1(CCN2CCC(c3c[nH]c4cnccc34)CC2)CCCc2c(Br)cccc2C1=O.Cl (stereo not shown) [TCMDC-141171] |  |  |  |  |  |  |  | 14.9% | 12.8% | 15.8% | 19.7% | 55.1% | 49.5% | 49.8% |  | HitlevelF [1, 7]: 0; HitlevelM [2, 8]: 1; Activity [2, 5]: 0 |
| Br.CCCCCCCCn1c2c(c(=N)c3c1CCC3)CCCC2 [TCMDC-125653] |  |  |  |  |  |  |  | 10.3% | 8.6% | 3.3% | 15.0% | 42.3% | 42.8% | 40.6% | 52.3% | HitlevelF [1, 7]: 0; HitlevelM [2, 8]: 1; Activity [2, 5]: 0 |
| COc1cc(NCC(O)CNc2cc(OC)c3ccccc3n2)nc2ccccc12 [TCMDC-139360] |  |  |  |  |  |  |  | 25.6% | 27.5% | 10.8% | 36.1% | 53.4% | 68.1% | 64.9% | 33.7% | HitlevelF [1, 9]: 0; HitlevelM [2, 10]: 2 |
| Cl.Cn1ccc(-c2cccc(Nc3ccnc4cc(-c5nccs5)ccc34)c2)n1 [TCMDC-138336] |  |  |  |  |  |  |  | 19.1% | 19.3% | 21.6% | 9.3% | 33.2% | 36.9% | 5.3% |  | HitlevelF [1, 9]: 0; HitlevelM [2, 10]: 1 |
| Cc1c(Cc2ccccc2Br)cnc2nc(N)nc(N)c12.Cl [TCMDC-137244] | 1.3% | -18.4% | -3.4% | -6.0% | 13.7% | 3.9% | 10.5% |  |  |  |  |  |  |  |  | % inhibition male (individual replicates) R3 [2, 4]: 18.7% |
| COc1ccc2nc(Nc3nc4cnccc4[nH]3)sc2c1 [TCMDC-131950] |  |  |  |  |  |  |  | 7.4% | 12.1% | -4.5% | 3.8% | -15.4% | -6.4% | -8.5% | -26.4% | HitlevelF [1, 7]: 0; HitlevelM [2, 8]: 0; Activity [2, 5]: 0 |
| CCc1c(CCNCCCCCCNCc2ccc3c(c2CC)OCO3)ccc(OC)c1OC.Cl [TCMDC-132068] |  |  |  |  |  |  |  | 13.2% | 18.0% | -2.7% | 25.3% | 39.4% | 42.2% | 56.9% | 19.5% | HitlevelF [1, 7]: 0; HitlevelM [2, 8]: 1; Activity [2, 5]: 0 |
| COc1cccc2c(O)c(CNC3CCCCC3)ccc12.Cl [TCMDC-137595] | -8.7% | -13.9% | -3.5% | -7.6% | -3.5% | 4.2% | 3.3% |  |  |  |  |  |  |  |  | % inhibition male (individual replicates) R3 [2, 4]: 3.4% |
| Cl.NCc1ccc(-c2ccc3c(N)nccc3c2)cc1 [TCMDC-133718] |  |  |  |  |  |  |  | 21.1% | 11.2% | 8.8% | 10.1% | 18.4% | -0.6% | 49.6% | -25.8% | HitlevelF [1, 9]: 1; HitlevelM [2, 10]: 1 |
| CNCCCCCCOc1ccc(CC(C)NCC(O)c2cccc(C(F)(F)F)c2)cc1.Cl (stereo not shown) [TCMDC-131523] | 10.7% | -17.9% | 1.1% | -0.7% | 2.8% | 4.2% | -0.8% |  |  |  |  |  |  |  |  | % inhibition male (individual replicates) R3 [2, 4]: -13.3% |
| CCOc1c(CNCCCCCCNCc2ccc3ccccc3c2OCC)ccc2ccccc12.CS(=O)(=O)O [TCMDC-137942] |  |  |  |  |  |  |  |  |  |  |  |  |  |  |  | Average inhibition female (%) [1, 11]: 35.4%; % inhibition female (individual replicates) R1 [1, 11]: 30.1%; % inhibition female (individual replicates) R3 [1, 11]: 19.1%; % inhibition female (individual replicates) R4 [1, 11]: 50.5%; HitlevelF ([1]; number of replicates with >50% inhibition in the female readout, 2µM): 1; Average inhibition male (%) [2, 11]: 82.7%; % inhibition male (individual replicates) R1 [2, 11]: 76.8%; % inhibition male (individual replicates) R3 [2, 11]: 64.7%; % inhibition male (individual replicates) R4 [2, 11]: 98.9%; HitlevelM ([2]; number of replicates with >50% inhibition in the male readout, 2µM): 4 |
| CN(C)CCCNCc1ccc(-c2ccc(C(F)(F)F)cc2)cc1 [TCMDC-140011] |  |  |  |  |  |  |  | 26.9% | 39.3% | -6.8% | 25.9% | 54.2% | 60.9% | 61.6% | 33.7% | HitlevelF [1, 9]: 0; HitlevelM [2, 10]: 3 |
